Data on eight compounds can be found in patent US9949980B2, “Drugs to prevent HPV infection” (Wisconsin Alumni Research Foundation, priority 2008, dated 2018).

Entries after “also recorded” stand apart in the source; their conditions may differ. Where two headings read alike, the source gives them in different places.

In one series the test system is HPV16 pseudoviruses. The series can be described thus: microbe, parasite or virus in culture. It is filed as cell-based. As to conditions: for activity at 3 µM: Human papillomavirus 16, HEK-293T, 48 h. An outline of the steps:
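Viability was read by CellTiter Glo luminescence on the same wells used for the SEAP infection read-out, after 48 hrs further incubation.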

The subject of series [1] is HPV16 pseudovirus. Kind of series: microbe, parasite or virus in culture. Conditions: HaCaT, HPV16 pseudovirus. In kind it is cell-based. From the text:
FIG. 2. Dose dependence inhibition of HPV16 pseudovirus infection in a human keratinocyte cell line (HaCaT). Graphed are the dose-dependent effects of lead compounds shown in Table 2 on the efficiency of infection by HPV16 pseudovirus scored by measuring luciferase reporter activity (squares) as well as their effects on cell viability (circles).
All but one of these compounds (6 is […]) were repurchased and subjected to a tertiary screen performed in the human keratinocyte cell line, HaCaT, and using HPV16 pseudoviruses encoding a third reporter gene, firefly luciferase, transcribed from a different, E1a, promoter.
The infectivity assay was repeated at least twice and each assay was performed in replicate (n≥3).
At 4 hours prior to exposure of cell to pseudoviruses, compounds were added to plates in 1% DMSO final concentration at the indicated amounts. Four hours later, 10 multiplicity of infection (M.O.I.) units of HPV16 pseudovirus carrying the plasmid LucF was added to the cells. 72 hours later, cells were lysed and luciferase assays performed using the Luciferase Assay System (Promega Cat. #E1501). For infection studies with HPV11 and HPV31 pseudoviruses, 200 virus genome equivalents (vge) of virus per cell were used. Cell viability was assessed in parallel plates by Luminescent Cell Viability Assay (Promega Cat. #G7571).

A further series has as its system HPV16 virus. The series can be described thus: Wild type HPV16 infection in 293T cells, early viral gene expression by real time PCR. It is filed as cell-based. As to conditions: 5 to 10 μM (FIG. 3: 10 μM), 48 hours post infection. The protocol: FIG. 3. Inhibition of infection by HPV 16 virus. Shown is the relative efficiency of infection by HPV16 virus in 293T cells as scored by quantifying early viral transcription using real time PCR for E2 (dark grey bars), E5 (white bars) and E7 (light grey bars) containing mRNAs at 48 hours post-infection in the absence (DMSO—vehicle only, values set at 100%) or the presence of the indicated compound (10 μM concentration). Data points shown are the average of triplicate sample values. The dotted line indicates the normalized value for no drug (set as 100% infection value).
The 21 selected compounds were also tested for their ability to inhibit infection by bonafide HPV16 in 293T cells by measuring early viral gene expression by real time PCR at 48 hours post infection (FIG. 3) after treatment of the cell with 5 to 10 μM of each compound. Consistently with the data of reporter gene assays, HPV early gene expression was inhibited by Compounds 4, 13, 14, 18 and 20. Given the large differences in IC50 and CD50, and the reproducible capacity to inhibit infection by HPV16 pseudovirus and HPV16 virus in different cell types, Compounds 13 and 14 were selected for further analysis.
After 2 day infection, total RNA was isolated from infected cell lysate and treated with DNase I (Promega) as previously. (Pyeon, D. et al., Establishment of human papillomavirus infection requires cell cycle progression, PLos Pathog. 2009 February; 5(2):e1000318. Epub 2009 Feb. 27). Complementary DNA (cDNA) was synthesized from the normalized total RNA with the SuperScript cDNA synthesis kit (Invitrogen). All oligonucleotide primers (0.5 μM) for PCR are previously published (Pyeon D. et al., Production of infectious human papillomavirus independently of viral replication and epithelial cell differentiation, Proc. Nat'l Acad. Sci. USA, 2005 Jun. 28; 102(26):9311-6, Epub 2005 Jun. 15) or listed in Table 2.
Conventional PCR was performed with Taq DNA polymerase (Promega) and the following cycle: denaturation at 94° C. for 5 min, 42 cycles of 94° C. for 30 sec., 55° C. for 1 min., and 72° C. for 1 min., followed by extension at 72° C. for 7 min. Final products were analyzed by 1% agarose gel electrophoresis and ethidium bromide staining. Quantitative RT-PCR was performed using QuantiTect SYBR green PCR kit (Qiagen) with the following cycle: denaturation at 95° C. for 5 min. and 40 cycles of 95° C. for 30 sec., 55° C. for 30 sec., and 72° C. for 30 sec.

Series [2] is described as follows: in vitro. Conditions: human.
The subject of series [3] is HPV16 pseudovirus. Kind of series: Luciferase assay: HPV16 pseudovirus with renilla luciferase reporter (HPV16wpA-RL). As to conditions: renilla luciferase reporter behind HPV16 promoter. (A reporter such as luciferase makes a cellular process visible.)
Method: (§1) The protocol for the secondary screen was identical to that of the primary screen with the exception that all volumes were scaled up by a factor of four. RL activity was measured using the Renilla Luciferase Assay System (Promega).
Series [4] can be described thus: in vitro. Conditions: human. This is another data set of the same source.
Series [5] is described as follows: in vitro. Conditions: human. This is another data set of the same source.
Method: as §1
The test system of another series is 293T cells. Kind of series: Primary HTS: cell viability (CellTiter Glo) in parallel on the same wells. Conditions: 3 μM HTS standard concentration, 293T cells. (Cellular ATP, detected with luciferase, serves as a proxy for viable cell number.)
[6] abbreviates: read-out: Infectivity (SEAP Activity), 3 μM HTS standard concentration, 293T cells, 48 hrs.
[7] abbreviates: read-out: Infectivity vs. viability, 3 μM HTS standard concentration, ratio infectivity/viability.
Setting [8] is: read-out: Primary HTS SEAP vs Viability, Table 2, first pair of columns (c2).
[9] abbreviates: read-out: Primary HTS SEAP vs Viability, Table 2, second pair of columns (c4).
[10] abbreviates: Primary HTS Viability % Average.

Broadly, the viability is a read-out of living cells in per cent, often relative to untreated cells.

Turning to `NNC(=O)c1cc(COc2cc(Cl)cc(Cl)c2)on1` [Compound 4, 5-[(3,5-dichlorophenoxy)methyl]-1,2-oxazole-3-carbohydrazide], the activity at 3 µM in the series with HPV16 pseudoviruses (setting [6]) was 22.6%; in the series on HPV16 pseudoviruses (setting [7]), 25%; in the series with HPV16 pseudoviruses (setting [8]) it was 18.3%; with HPV16 pseudoviruses (setting [9]), 26.9%. Moreover, in the series with HPV16 pseudovirus [1], the “Effect on infection and cytotoxicity, assayed independently” value is “inhibit infection but also to cause cytotoxicity at similar doses”. Further, in the series with HPV16 virus, the “Inhibition of HPV16 early gene expression (E2, E5, E7 mRNAs)” value (shortened to “Inhibition”) was “reproducible and significant inhibition; also recorded: inhibited”. The values for the viability at 52 h, 3 μM in the series “in vitro [2]” (setting [10]) and in “in vitro [2]” (Viability (CelTiter Glow)) were 94.5% and 90.4%, respectively. Also, the “Luciferase assay RL % Average” value in the series on HPV16 pseudovirus [3] is recorded as 68.26%.

On to `COc1ccc(C(O)(CNCc2ccccc2)c2ccc(Br)cc2)cc1` (centres unmarked) [Compound 9, 2-(benzylamino)-1-(4-bromophenyl)-1-(4-methoxyphenyl)ethanol], for which the activity at 3 µM in the series with HPV16 pseudoviruses (setting [6]) was found to be 29.9%; in the series with HPV16 pseudoviruses (setting [7]), 28.4%; in the series on HPV16 pseudoviruses (setting [8]) it was 16.5%; with HPV16 pseudoviruses (setting [9]), 43.4%. Further, the viability at 52 h, 3.3 μM in the series “in vitro [4]” amounted to 102%; in the series “in vitro [5]”, 99%. Further, the values for the viability at 52 h, 3 μM in the series “in vitro [2]” (setting [10]) and in “in vitro [2]” (Viability (CelTiter Glow)) were 101% and 105%, respectively. The “Luciferase assay RL % Average” value with HPV16 pseudovirus [3] is given as 71.67%.

In the case of `COC(=O)C1=C(C)NC2=C(C(=O)c3ccccc32)C1c1cc2c(cc1Br)OCO2` (centres unmarked) [Compound 11, methyl 4-(6-bromo-1,3-benzodioxol-5-yl)-2-methyl-5-oxo-4,5-dihydro-1H-indeno[1,2-b]pyridine-3-carboxylate], the activity at 3 µM with HPV16 pseudoviruses (setting [6]) came to 19.1%; with HPV16 pseudoviruses (setting [7]), 14.7%; in the series with HPV16 pseudoviruses (setting [8]) it was 17.7%; in the series with HPV16 pseudoviruses (setting [9]) it was 20.4%. In addition, the viability at 52 h, 3.3 μM amounted to 97.3% in “in vitro [4]” and 95.7% in the series “in vitro [5]”. Besides, the viability at 52 h, 3 μM in the series “in vitro [2]” (Viability (CelTiter Glow)) amounted to 130%. The “Luciferase assay RL % Average” value with HPV16 pseudovirus [3] is 95.56%.

Turning to `CCOc1ccc(C(=O)Nc2ccc3oc(-c4ccccc4Br)nc3c2)cc1` [Compound 15, N-[2-(2-bromophenyl)-1,3-benzoxazol-5-yl]-4-ethoxybenzamide], the activity at 3 µM stood at 26.4% with HPV16 pseudoviruses (setting [6]), 28.1% in the series on HPV16 pseudoviruses (setting [7]), 11.1% with HPV16 pseudoviruses (setting [8]) and 41.6% in the series with HPV16 pseudoviruses (setting [9]). Also, the viability at 52 h, 3.3 μM in the series “in vitro [4]” was found to be 95.7%; in the series “in vitro [5]”, 97.7%. Besides, the viability at 52 h, 3 μM turned out to be 89.5% in the series “in vitro [2]” (setting [10]) and 93.8% in “in vitro [2]” (Viability (CelTiter Glow)). The “Luciferase assay RL % Average” value in the series on HPV16 pseudovirus [3] was 102.39%.

Turning to `O=C1NC(=S)SC1=Cc1cc(Br)ccc1OCc1ccccc1Cl` [Compound 18, 5-{5-bromo-2-[(2-chlorobenzyl)oxy]benzylidene}-2-thioxo-1,3-thiazolidin-4-one], the activity at 3 µM in the series with HPV16 pseudoviruses (setting [6]) is 24.2%; with HPV16 pseudoviruses (setting [7]) it was 25.4%; in the series on HPV16 pseudoviruses (setting [8]) it was 27.2%; in the series with HPV16 pseudoviruses (setting [9]) it was 21.2%. Besides, the “Inhibition” value in the series on HPV16 virus was “reproducible and significant inhibition; also recorded: inhibited”. Also, the viability at 52 h, 3 μM was 87.8% in “in vitro [2]” (setting [10]) and 95.4% in the series “in vitro [2]” (Viability (CelTiter Glow)). Besides, the “Luciferase assay RL % Average” value in the series with HPV16 pseudovirus [3] was 112.63%.

Regarding `FC(F)(F)c1cnc2c(c1)nc(S)n2-c1ccc(Cl)cc1` [Compound 20, 3-(4-chlorophenyl)-6-(trifluoromethyl)-3H-imidazo[4,5-b]pyridine-2-thiol], the activity at 3 µM was 21.4% in the series on HPV16 pseudoviruses (setting [6]), 21.6% in the series on HPV16 pseudoviruses (setting [7]), 20.9% in the series on HPV16 pseudoviruses (setting [8]) and 21.9% in the series with HPV16 pseudoviruses (setting [9]). For the same compound, the “Inhibition” value with HPV16 virus is “reproducible and significant inhibition; also recorded: inhibited”. Further, the values for the viability at 52 h, 3 μM in the series “in vitro [2]” (setting [10]) and in the series “in vitro [2]” (Viability (CelTiter Glow)) were 95.8% and 99.1%, respectively. Further, in the series on HPV16 pseudovirus [3], the “Luciferase assay RL % Average” value turned out to be 109.22%.

Consider `Cc1ccc(C2Nc3ccccc3NC3=C2C(=O)CC(c2ccccc2)C3)s1` (centres unmarked) [Compound 22, 11-(5-methyl-2-thienyl)-3-phenyl-2,3,4,5,10,11-hexahydro-1H-dibenzo[b,e][1,4]diazepin-1-one], for which the activity at 3 µM was 44.1% in the series on HPV16 pseudoviruses (setting [6]), 41.9% in the series with HPV16 pseudoviruses (setting [7]), 45.2% with HPV16 pseudoviruses (setting [8]) and 43% with HPV16 pseudoviruses (setting [9]). Besides, the viability at 52 h, 3.3 μM came out at 93.7% in “in vitro [4]” and 97.3% in the series “in vitro [5]”. Besides, the viability at 52 h, 3 μM in “in vitro [2]” (Viability (CelTiter Glow)) turned out to be 105%. Besides, the “Luciferase assay RL % Average” value with HPV16 pseudovirus [3] was 44.37%.

In the case of “-[(3-fluorophenypamino]-3-methylpyrido[1,2-a]benzimidazole-4-carbonitrile [Compound 5873417]”, the “Infectivity (SEAP Activity)” value in the series with HPV16 pseudoviruses (3 μM HTS standard concentration, 293T cells, 48 hrs) is listed as 46.16%. Besides, the Infectivity vs. viability with HPV16 pseudoviruses (3 μM HTS standard concentration, ratio infectivity/viability) came out at 45.53%. The “Viability (CelTiter Glow)” value in the series on 293T cells stood at 101.39%.
